Measured values as given in paper PMC8457062, “Beam Search for Automated Design and Scoring of Novel ROR Ligands with Machine Intelligence” (Angewandte Chemie (International Ed. in English), 2021).

Legend:
Format in all cases: cell-based
[1] = target: T1, RORα (Homo sapiens, UniProt P35398); experiment: Gal4-RORα hybrid reporter gene assay in HEK293T cells; conditions: for IC50: Gal4 hybrid reporter gene assay, inverse agonism, mean±S.E.M., n≥4
T1 construct: uniprot ID P35398-2, aa 266- 523; expressed in transfected cells; host or cells: HEK293T
T1 sequence (P35398 266-523): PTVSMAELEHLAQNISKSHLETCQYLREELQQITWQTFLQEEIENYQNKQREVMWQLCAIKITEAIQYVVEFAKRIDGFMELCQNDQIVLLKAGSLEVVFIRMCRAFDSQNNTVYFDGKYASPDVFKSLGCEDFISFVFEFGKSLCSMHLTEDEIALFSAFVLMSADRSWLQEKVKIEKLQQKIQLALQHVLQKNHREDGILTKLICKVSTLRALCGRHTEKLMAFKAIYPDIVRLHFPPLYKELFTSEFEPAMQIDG
Description: (§1) In vitro characterization of compounds 1, 2, and 3 in Gal4‐ROR hybrid reporter gene assays confirmed inverse RORγ agonism with micromolar to sub‐micromolar IC50 values (Table 1).
(§2) In vitro Characterization Methods
(§3) Hybrid reporter gene assays. The hybrid receptor plasmids pFA-CMV-hRORα-LBD (NR1F1, isoform 1, uniprot ID P35398-2, aa 266-523), pFA-CMV-hRORβ-LBD (NR1F2, isoform 2, uniprot ID Q92753-2, aa 216-470), and pFA-CMV-hRORγ-LBD (NR1F3, isoform 1, uniprot ID P51449, aa 263-518) encode the Gal4-DBD fused to the hinge region and ligand binding domain of the canonical isoform of the respective human nuclear receptor and were cloned as described previously[13,14] using cDNA from SourceBioScience (Nottingham, UK). The Gal4-responsive firefly luciferase reporter pFR-Luc (Stratagene, La Jolla, CA, USA) and pRL-SV40 (Promega, Madison, WI, USA; internal control) were used together with either pFA-CMV-NR-LBD clone for the hybrid reporter gene assays.
(§4) HEK293T cells (German Collection of Microorganisms and Cell Culture GmbH, DSMZ) were cultured in Dulbecco’s modified Eagle’s medium (DMEM), high glucose supplemented with 10 % fetal calf serum (FCS), sodium pyruvate (1 mM), penicillin (100 U/mL), and streptomycin (100 μg/mL) at 37 °C and 5 % CO2 and seeded in 96-well plates (3×10^4 cells/well) twenty-four hours prior to transfection. Before transfection, medium was changed to Opti -MEM without supplements and transient transfection with above mentioned plasmids (pFR-Luc, pRL-SV40 and one pFA-CMV-NR-LBD clone) was carried out with Lipofectamine LTX reagent (Invitrogen) according to the manufacturer’s protocol. Five hours after transfection, medium was changed to Opti -MEM supplemented with penicillin (100 U/mL) a nd streptomycin (100 μg/mL) additionally containing 0.1 % DMSO and the respective test compound or 0.1 % DMSO alone as untreated control. Each concentration was tested in duplicates and each experiment was repeated independently at least two times. Followi ng overnight (14−16 h) incubation, cells were assayed for luciferase activity using the Dual - Glo Luciferase Assay System (Promega) according to the manufacturer’s protocol. Luminescence was measured with a Tecan Spark luminometer (Tecan Deutschland GmbH, G ermany). Normalization of transfection efficiency and cell growth was done by division of firefly luciferase data by Renilla luciferase data and multiplying the value by 1000 resulting in relative light units (RLU). Fold reporter repression was obtained by dividing the mean RLU of a test compound at a respective concentration by the mean RLU of the 0.1% DMSO control. […]

[2] = target: T2, RORγ (Homo sapiens, UniProt P51449); experiment: Gal4-RORγ hybrid reporter gene assay in HEK293T cells; conditions: for IC50: Gal4 hybrid reporter gene assay, inverse agonism, mean±S.E.M., n≥4; for potency on RORγ compared to the related RORα and RORβ isoforms (subtype preference): Gal4 hybrid reporter gene assays
T2 construct: uniprot ID P51449, aa 263-518; expressed in transfected cells; host or cells: HEK293T
T2 sequence (P51449 263-518): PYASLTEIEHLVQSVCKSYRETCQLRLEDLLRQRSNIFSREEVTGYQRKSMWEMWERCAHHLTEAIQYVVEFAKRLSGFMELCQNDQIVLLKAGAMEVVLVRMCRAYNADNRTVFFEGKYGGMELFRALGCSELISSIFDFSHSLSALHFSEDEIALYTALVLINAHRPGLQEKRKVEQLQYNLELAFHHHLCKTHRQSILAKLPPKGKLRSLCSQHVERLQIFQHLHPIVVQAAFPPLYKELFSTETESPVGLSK
Description: as §1, §2, §3
HEK293T cells (German Collection of Microorganisms and Cell Culture GmbH, DSMZ) were cultured in Dulbecco’s modified Eagle’s medium (DMEM), high glucose supplemented with 10 % fetal calf serum (FCS), sodium pyruvate (1 mM), penicillin (100 U/mL), and streptomycin (100 μg/mL) at 37 °C and 5 % CO2 and seeded in 96-well plates (3×10^4 cells/well) twenty-four hours prior to transfection. Before transfection, medium was changed to Opti -MEM without supplements and transient transfection with above mentioned plasmids (pFR-Luc, pRL-SV40 and one pFA-CMV-NR-LBD clone) was carried out with Lipofectamine LTX reagent (Invitrogen) according to the manufacturer’s protocol. Five hours after transfection, medium was changed to Opti -MEM supplemented with penicillin (100 U/mL) a nd streptomycin (100 μg/mL) additionally containing 0.1 % DMSO and the respective test compound or 0.1 % DMSO alone as untreated control. Each concentration was tested in duplicates and each experiment was repeated independently at least two times. Followi ng overnight (14−16 h) incubation, cells were assayed for luciferase activity using the Dual - Glo Luciferase Assay System (Promega) according to the manufacturer’s protocol. Luminescence was measured with a Tecan Spark luminometer (Tecan Deutschland GmbH, G ermany). Normalization of transfection efficiency and cell growth was done by division of firefly luciferase data by Renilla luciferase data and multiplying the value by 1000 resulting in relative light units (RLU). Fold reporter repression was obtained by dividing the mean RLU of a test compound at a respective concentration by the mean RLU of the 0.1% DMSO control. IC 50 values were obtained by plotting fold reporter activation vs test compound concentrations and fitting the resulting sigmoidal curve with a four-parameter logistic regression in SigmaPlot 12.5 (Systat Software GmbH, Erkrath, Germany). The Gal4 - ROR hybrid assays were validated with the reference inverse agonists SR1001 and SR1078 , which yielded IC50 values in agreement […]
(1 picture or pasted object on this page, not shown here)

[3] = target: T3, RORβ (Homo sapiens, UniProt Q92753); experiment: Gal4-RORβ hybrid reporter gene assay in HEK293T cells; conditions: for IC50: Gal4 hybrid reporter gene assay, inverse agonism, mean±S.E.M., n≥4
T3 construct: uniprot ID Q92753-2, aa 216-470; expressed in transfected cells; host or cells: HEK293T
T3 sequence (Q92753 216-470): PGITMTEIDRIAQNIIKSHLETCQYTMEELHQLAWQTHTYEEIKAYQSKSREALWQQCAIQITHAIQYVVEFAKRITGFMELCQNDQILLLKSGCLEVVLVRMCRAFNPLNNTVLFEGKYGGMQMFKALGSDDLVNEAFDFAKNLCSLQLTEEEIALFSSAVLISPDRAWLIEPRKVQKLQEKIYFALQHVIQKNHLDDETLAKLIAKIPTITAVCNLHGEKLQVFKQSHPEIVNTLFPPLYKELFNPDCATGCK
Description: as §1, §2, §3, §4

[4] = precise IC50 could not be determined due to cytotoxicity

| IC50 [1] [µM] | IC50 [2] [µM] | potency on RORγ compared to the related RORα and RORβ isoforms (subtype preference) [2] | IC50 [3] [µM] | SMILES | activity on RORα (in words) [1, 4] | activity on RORβ (in words) [3, 4] |
| --- | --- | --- | --- | --- | --- | --- |
| 10 ± 1 | 0.68 ± 0.07 | more than tenfold higher potency | 7.6 ± 0.5 | O=S(=O)(Cc1ccccc1)N(Cc1ccc(N2CCC(C(F)(F)F)CC2)cc1)C1CCC1 [Compound 3] |  |  |
| > 10 | 4.6 ± 0.5 |  | > 10 | O=C1CC2(CCCC2)CC(=O)N1CCCCN1CCN(c2ccc(Cl)cc2)CC1 [Compound 1] | additionally active | additionally active |
| 23 ± 3 | 0.37 ± 0.05 | more than tenfold higher potency | 22 ± 1 | O=S(=O)(Cc1ccccc1)N(Cc1ccc(N2CCC(C(F)(F)F)CC2)cc1F)C1CCC1 [Compound 2] |  |  |
